Data set [1] concerns the target rat cerebral cortex tissue containing all three α2AR subtypes. Details: method as in Giardinà, D. et al., J. Med. Chem. 39, 4602-4607 (1996). To be noted: ref Giardinà, D. et al., J. Med. Chem. 39, 4602-4607 (1996); cited from earlier work.
Data set [2] concerns the target T1, α1BARXTAL (Homo sapiens, UniProt P35368, D191Y/DEL249-283/E194V/F334L/G183V/I116T/P349L/S150Y/S168C/S95C/T295M/V124M/V333L).
T1 construct: deletion of N-terminal residues M1–N34 and intracellular loop three (ICL3) residues K249–L283, and fusion of DARPin D12[43],[68],[69] to residue C350^7.55; MBP (N, cleaved yes); His6-tag (N, cleaved yes); DARPin D12, modified (ΔS1,D2); L3K, G4A, K5R, A13K; thioredoxin A (TrxA) (C, cleaved yes); His10-tag (C, cleaved yes); made in house; host or cells: E. coli BL21 (fhuA2 deletion)
Put plainly: CPM-based thermostability assay of ligand-bound receptor. As to conditions: cyclazosin-bound α1BARXTAL.

Data set [3] addresses T2, wild-type α1BAR (Homo sapiens, UniProt P35368).
T2 sequence (P35368 35-520 limits assumed): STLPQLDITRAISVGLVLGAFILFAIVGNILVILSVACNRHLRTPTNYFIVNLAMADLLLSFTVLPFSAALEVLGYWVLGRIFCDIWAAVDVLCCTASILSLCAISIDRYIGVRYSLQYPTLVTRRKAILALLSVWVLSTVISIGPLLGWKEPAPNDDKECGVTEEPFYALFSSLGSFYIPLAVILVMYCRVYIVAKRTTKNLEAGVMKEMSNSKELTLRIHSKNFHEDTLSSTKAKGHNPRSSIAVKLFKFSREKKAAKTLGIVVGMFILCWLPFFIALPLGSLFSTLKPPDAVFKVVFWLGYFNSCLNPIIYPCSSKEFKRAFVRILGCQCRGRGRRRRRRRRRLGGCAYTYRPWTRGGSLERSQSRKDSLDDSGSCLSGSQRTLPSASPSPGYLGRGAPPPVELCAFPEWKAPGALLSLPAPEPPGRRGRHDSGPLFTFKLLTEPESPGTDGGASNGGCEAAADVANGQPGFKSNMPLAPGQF
Put plainly: HTRF ligand-binding assay on whole transfected HEK293T/17 cells (QAPB saturation; competition with QAPB tracer).

For data set [4], the target named is α1BARXTAL-ΔD12 (stabilized α1BAR without DARPin D12) (Homo sapiens, UniProt P35368, D191Y/DEL249-283/E194V/F334L/G183V/I116T/P349L/S150Y/S168C/S95C/T295M/V124M/V333L). Put plainly: HTRF competition ligand-binding assay on whole transfected HEK293T/17 cells (QAPB tracer). To be noted: construct α1BARXTAL-∆D12, competition with Cyclazosin against QAPB tracer, one value per experiment date, read-out: Calculated pKi values (converted).

On the set-up of data set [5]: method as in ref 49 (a number printed in a supplementary file, which may have a reference list of its own: not looked up in the article's list). To be noted: computationally estimated; cited from earlier work.
Data set [6] addresses T3, wild-type α2CAR (Homo sapiens, UniProt P18825).
T3 sequence (P18825 37-462 limits assumed): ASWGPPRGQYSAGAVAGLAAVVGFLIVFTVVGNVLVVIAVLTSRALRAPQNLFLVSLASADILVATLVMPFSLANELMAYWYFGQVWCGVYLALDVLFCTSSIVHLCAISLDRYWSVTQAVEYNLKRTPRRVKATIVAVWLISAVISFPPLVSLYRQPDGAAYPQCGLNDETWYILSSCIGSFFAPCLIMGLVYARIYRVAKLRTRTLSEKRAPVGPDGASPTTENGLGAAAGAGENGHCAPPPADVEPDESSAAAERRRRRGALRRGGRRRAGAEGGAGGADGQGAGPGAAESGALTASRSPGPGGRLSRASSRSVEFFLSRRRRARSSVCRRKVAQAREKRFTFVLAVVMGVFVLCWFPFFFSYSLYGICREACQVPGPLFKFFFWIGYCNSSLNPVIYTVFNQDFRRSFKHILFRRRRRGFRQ
The data set is described as follows: HTRF ligand-binding assay on whole transfected HEK293T/17 cells (QAPB saturation; competition with QAPB tracer). As to conditions: pKi (competition binding), competition with 50 nM QAPB tracer, whole cells, mean. Background: TR-FRET usually uses a lanthanide donor and a delayed reading to cut background.

The target in data set [7] is α1BAR-α2C(YLLY;ECL2) chimera (Homo sapiens, UniProt P35368, A122L/DEL188-193/E186Y/E194Q/E199D/F202W/G179P/I178F/INS181VSLYRQP/K185A/L182D/L314Y/P201T/T198N/V197L/W121Y/W184A). The data set is described as above.
In data set [8] the target is T4, α1BAR-α2C(L^45.52) chimera (V197^45.52→L) (Homo sapiens, UniProt P35368, V197L).
T4 sequence (P35368 35-520 V197L): T2 sequence (P35368 35-520 limits assumed) with V163L
The data set is described as above.

For data set [9], the system named is α1BAR expressed in mammalian cells. As to conditions: radioligand binding; ref Proudman, R. G. W., et al., Pharmacol. Res. Perspect. 8 (2020); cited from earlier work.
The target of data set [10] is α1BAR-α2C(YLLY;N^2.64) chimera (Homo sapiens, UniProt P35368, A122L/L105N/L314Y/V197L/W121Y). Put plainly: HTRF ligand-binding assay on whole transfected HEK293T/17 cells (QAPB saturation; competition with QAPB tracer).

Residue numbers refer to the chain shown, from its start. Values joined by “and” are separate entries in the source; they are usually repeats but may differ in a detail not shown here. Equal values may be shown once.

In general, pKa refers to the pH at which an ionisable group is half protonated.

Sequence of α1BARXTAL-ΔD12 (stabilized α1BAR without DARPin D12) (P35368 with tags, fused parts or gaps with the stated changes): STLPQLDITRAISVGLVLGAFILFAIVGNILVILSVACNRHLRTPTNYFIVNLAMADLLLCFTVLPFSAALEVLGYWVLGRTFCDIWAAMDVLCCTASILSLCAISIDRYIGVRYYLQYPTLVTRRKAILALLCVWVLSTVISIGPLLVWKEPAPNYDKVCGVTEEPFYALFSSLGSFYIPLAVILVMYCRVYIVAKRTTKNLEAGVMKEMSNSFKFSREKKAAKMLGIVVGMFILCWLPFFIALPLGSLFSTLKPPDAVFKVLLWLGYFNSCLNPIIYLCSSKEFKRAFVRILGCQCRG
Sequence of α1BAR-α2C(YLLY;N^2.64) chimera (P35368 35-520 L105N/W121Y/A122L/V197L/L314Y): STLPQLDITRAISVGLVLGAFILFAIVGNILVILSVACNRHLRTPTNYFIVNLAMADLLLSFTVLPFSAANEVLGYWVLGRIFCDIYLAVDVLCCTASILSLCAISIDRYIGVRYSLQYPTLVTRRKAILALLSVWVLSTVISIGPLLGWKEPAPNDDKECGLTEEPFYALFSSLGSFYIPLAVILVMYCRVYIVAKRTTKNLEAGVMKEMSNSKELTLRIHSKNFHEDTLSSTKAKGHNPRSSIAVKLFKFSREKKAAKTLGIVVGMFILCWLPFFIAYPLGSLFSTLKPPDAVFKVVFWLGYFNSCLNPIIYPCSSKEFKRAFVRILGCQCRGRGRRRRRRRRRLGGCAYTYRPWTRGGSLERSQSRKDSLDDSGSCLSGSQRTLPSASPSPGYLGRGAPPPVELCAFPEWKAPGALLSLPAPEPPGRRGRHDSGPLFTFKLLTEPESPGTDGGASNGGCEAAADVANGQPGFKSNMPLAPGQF
Sequence of α1BAR-α2C(YLLY;ECL2) chimera (P35368 with tags, fused parts or gaps with the stated changes): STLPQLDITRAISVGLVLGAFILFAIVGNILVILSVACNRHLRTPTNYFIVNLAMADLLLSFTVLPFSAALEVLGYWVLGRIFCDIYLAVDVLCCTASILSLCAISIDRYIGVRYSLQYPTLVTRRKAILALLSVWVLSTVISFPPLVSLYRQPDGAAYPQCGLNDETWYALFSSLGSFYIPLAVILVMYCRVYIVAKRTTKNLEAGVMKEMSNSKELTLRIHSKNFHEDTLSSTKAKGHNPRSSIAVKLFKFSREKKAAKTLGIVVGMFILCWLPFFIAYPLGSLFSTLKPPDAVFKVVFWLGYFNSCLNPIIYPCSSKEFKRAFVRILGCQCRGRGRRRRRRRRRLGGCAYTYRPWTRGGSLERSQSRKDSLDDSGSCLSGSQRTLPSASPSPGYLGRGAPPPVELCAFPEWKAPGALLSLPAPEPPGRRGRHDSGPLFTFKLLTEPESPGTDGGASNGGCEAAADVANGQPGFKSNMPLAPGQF
T1 sequence (P35368 with tags, fused parts or gaps with the stated changes): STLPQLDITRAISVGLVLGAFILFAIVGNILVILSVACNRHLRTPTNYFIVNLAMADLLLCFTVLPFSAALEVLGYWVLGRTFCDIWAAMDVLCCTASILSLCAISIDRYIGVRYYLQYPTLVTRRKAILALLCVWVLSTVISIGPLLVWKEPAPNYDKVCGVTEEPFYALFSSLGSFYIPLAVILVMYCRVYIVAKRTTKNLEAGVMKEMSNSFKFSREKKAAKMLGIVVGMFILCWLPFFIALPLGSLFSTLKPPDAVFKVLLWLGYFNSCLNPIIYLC

Regarding `COc1cc2nc(N3CCN(C(=O)c4ccco4)[C@H]4CCCC[C@H]43)nc(N)c2cc1OC` (relative stereo) [cyclazosin, [4-(4-amino-6,7-dimethoxyquinazolin-2-yl)-cis-octahydroquinoxalin-1-yl] furan-2-ylmethanone], the “affinity as pK value (RLBA)” value is 6.17 in [1] and 8.68 in data set [9]. The “apparent Tm of the ligand-bound receptor” value in [2] was “≈ 71 °C”. For the same compound, the Ki in data set [3] (Ki, competition with 2 nM QAPB tracer, whole cells) is 1.02 nM; in [4], 9.9 nM and 6.69 nM and 2.8 nM; in data set [6], 339 nM; in data set [7], 2.69 nM; in data set [8] (pKi (competition binding), competition with 2 nM QAPB tracer, whole cells, mean) it was 1.1 nM; in data set [10], 7.24 nM. In [3] (ratio of affinities α1BAR vs α2CAR), the “higher affinity for wild-type α1BAR compared to α2CAR” value was around 330 fold. Besides, the pKa in data set [5] is reported as 9. For the same compound, the “effect of the substitution on affinity” value in data set [8] (V197^45.52→L vs wild-type α1BAR) was “negligible”.

The values are drawn from paper PMC8770593 (Nature Communications, 2022).
